# Reference: article PMC9928118, “Funneling modulatory peptide design with generative models: Discovery and characterization of disruptors of calcineurin protein-protein interactions” (PLOS Computational Biology, 2023)
# Test system: GST-tagged Cn
# Assay: PEPperPRINT peptide microarray binding assay with GST-tagged Cn
# Text: We then estimated in-silico the binding strength of the various peptides to Cn by template-based docking followed by flexible backbone refinement using Modeller and PepCrawler (Figs 4 and S4). In parallel, we performed a medium-throughput qualitative binding assay using a PEPperPRINT peptide microarray to evaluate the direct binding of Cn to selected peptides (Figs 4 and S5, S3 Data).
# Fig 4 Medium-throughput filtering by structural modeling and microarray screening. (a) Depiction of the structural modeling protocol: after alignment to the known PxIxIT binding site, an efficient flexible backbone structure refinement algorithm is applied to estimate the docking energy. […] (c) Coefficients of the equivalent single-site model fitted by sparse linear regression, shown in weight logo representation. […] Colors indicate physical property (black = hydrophobic, red = negatively charged, etc.). (d) Per-gene distribution of docking scores across natural fragments (lower is better). […] (e) Overview of the microarray screening. Peptides are printed on the chip (two circles per peptide). After pouring of Cn and subsequent washing, fluorescent-tagged, a Cn-targeting antibody is overlaid and an image is taken. Fluorescent spots indicate strong Cn binders. (f) Scatter plot of the sequence likelihood (normalized by length, higher is better) against fluorescence level (higher is better, see Methods for details of the data analysis).
# In parallel, selected peptides were tested for Cn binding on a chip microarray (PEPperPRINT). 786 peptides were printed on the chip and were incubated with GST-tagged Cn overnight at 4°C. Following extensive washing, binding was detected by applying a fluorescently labeled (Alexa-Fluor 647) GST antibody. […] The experiment was repeated five times, and Z-normalized fluorescence levels were determined following post-processing of the raw data (Methods, S5A, S5B and S5C Fig).
# The peptide array was prepared as a custom array pepper chip (PEPperPRINT). For binding detection, 1mg/ml GST-tagged Cn was incubated overnight on the microarray at 4°C. Following extensive washing, fluorescently labeled (Alexa-Fluor 647) GST-antibody. […] The experiment was repeated five times. Each scan was analyzed as follows: a grid was overlaid using the border HA markers to determine regions of interest (ROI) for each peptide (two ROIs per peptide) and the logarithm of the average fluorescence intensity was computed for each ROI. […] To remove spatial artifacts, a position-dependent baseline fluorescence was fitted using a second-order polynomial, and subtracted to the fluorescence. Fluorescence levels were next averaged over the two ROI for each peptide and Z-normalized. […] The Z-scores were averaged over the five repetitions to yield one fluorescence score per peptide.
# [1] = max over the spots listed under Location on chip
# [2] = mean over the spots listed under Location on chip
# [3] = GST-tagged Cn, max over the chip spots listed under Location on chip
# [4] = GST-tagged Cn, mean over the chip spots listed under Location on chip
# [5] = GST-tagged Cn, max over the spots on the chip (two locations)
# [6] = GST-tagged Cn, mean over the spots on the chip (two locations)
# [7] = GST-tagged Cn, max over the spots named in Location on chip
# [8] = GST-tagged Cn, mean over the spots named in Location on chip
# [9] = max over the chip locations listed for the peptide (two spots)
# [10] = mean over the chip locations listed for the peptide (two spots)
# [11] = GST-tagged Cn, max over the chip locations
# [12] = GST-tagged Cn, mean over the chip locations
sequence,measurement,setting,value
TFWTNPQFKITLEELD [SeqRBMlowT_5669],Chip Fluorescence (max),[1],2.6605
same,Chip Fluorescence (mean),[2],0.5654
TFWTNPQYRIKLTDAD [SeqRBMlowT_4313],Chip Fluorescence (max),[3],0.4524
same,Chip Fluorescence (mean),[4],-0.5715
QFKKSNLLGFMAASGD [Seqshuffled_9600],Chip Fluorescence (max),[5],0.9897
same,Chip Fluorescence (mean),[6],0.1872
SSEYQESLCIENFSAN [SeqRBM_3304],Chip Fluorescence (max),[7],1.766
same,Chip Fluorescence (mean),[8],0.6423
TFWTNPQYRITLDSSD [SeqRBMlowT_972],Chip Fluorescence (max),[7],1.828
same,Chip Fluorescence (mean),[8],-0.3429
ADEANPRITITPAELP [SeqRBMlowT_3131],Chip Fluorescence (max),[9],16.2722
same,Chip Fluorescence (mean),[10],1.499
TFWMNPQFRITLDDPD [SeqRBMlowT_69],Chip Fluorescence (max),[1],3.266
same,Chip Fluorescence (mean),[2],0.639
NWPETPSIVEQPPSSS [SeqRBM_881],Chip Fluorescence (max),[11],0.2051
same,Chip Fluorescence (mean),[12],-1.045
KSKLIPKLSIQSPVRH [SeqJHY_Macaca_mulatta],Chip Fluorescence (max),[5],1.129
same,Chip Fluorescence (mean),[6],-1.294
TFWTNPQFVITLEEVD [SeqRBMlowT_928],Chip Fluorescence (max),[1],3.091
same,Chip Fluorescence (mean),[2],0.8732
SHKASPPTLNESPVTH [SeqRBM_2083],Chip Fluorescence (max),[11],-0.06558
same,Chip Fluorescence (mean),[12],-1.173
SDEAGPRIVITATELP [SeqRBMlowT_4492],Chip Fluorescence (max),[1],2.835
same,Chip Fluorescence (mean),[2],0.5943
TFWTNPQFKVKLEDVD [SeqRBMlowT_6885],Chip Fluorescence (max),[7],1.498
same,Chip Fluorescence (mean),[8],-0.7469
SDSANPEITITPAELP [SeqRBMlowT_1995],Chip Fluorescence (max),[9],3.663
same,Chip Fluorescence (mean),[10],2.123
DTYGTASLARELPSPK [Seqshuffled_9914],Chip Fluorescence (max),[7],1.867
same,Chip Fluorescence (mean),[8],0.7201
GASMCPAMSWQDCGQR [SeqSFB3_Iconisemion_striatum],Chip Fluorescence (max),[7],1.507
same,Chip Fluorescence (mean),[8],0.3571
DSLYQEVLGIRSFSLS [SeqRBM_8930],Chip Fluorescence (max),[3],0.6781
same,Chip Fluorescence (mean),[4],0.06214
TFWTNPQYRLKIPDPD [SeqRBMlowT_280],Chip Fluorescence (max),[1],2.677
same,Chip Fluorescence (mean),[2],0.4774
TSSSLPTFNFSSSVIT [SeqNUP153_Canis_lupus],Chip Fluorescence (max),[5],0.9878
same,Chip Fluorescence (mean),[6],-0.982
TFWTNPQYKITLEEED [SeqRBMlowT_3204],Chip Fluorescence (max),[1],3.2
same,Chip Fluorescence (mean),[2],1.112
TFWSNPQFKIKLEEPD [SeqRBMlowT_2229],Chip Fluorescence (max),[5],1.024
same,Chip Fluorescence (mean),[6],-0.06201
STSSLPTFSFSSPVPS [SeqRBMlowT_2358],Chip Fluorescence (max),[11],-0.2537
same,Chip Fluorescence (mean),[12],-3.06
SSSSLPTFQFSTPATL [SeqRBM_7341],Chip Fluorescence (max),[5],1.265
same,Chip Fluorescence (mean),[6],-1.213
NVLRISSARPDNRGVY [SeqCEACAM5_Musca_domestica],Chip Fluorescence (max),[7],1.598
same,Chip Fluorescence (mean),[8],0.6708
TFWTNPQYKITLEEPD [SeqRBMlowT_54],Chip Fluorescence (max),[5],1.133
same,Chip Fluorescence (mean),[6],-0.8126
REPGVPPLELKGHLSL [SeqRBM_7171],Chip Fluorescence (max),[7],1.816
same,Chip Fluorescence (mean),[8],0.8874
KAYMSPFMSFIDGGRR [SeqRBMlowT_6614],Chip Fluorescence (max),[1],2.798
same,Chip Fluorescence (mean),[2],1.173
TFWTNPQYRITLTDVD [SeqRBMlowT_7188],Chip Fluorescence (max),[3],0.6928
same,Chip Fluorescence (mean),[4],-1.3023
KAYMNPYMQFIDGGRR [SeqRBMlowT_4720],Chip Fluorescence (max),[5],1.204
same,Chip Fluorescence (mean),[6],-0.1516
TFWSNPQFDIALDDDD [SeqRBM_1928],Chip Fluorescence (max),[9],3.897
same,Chip Fluorescence (mean),[10],1.75
STSSLPTFSFSSPVSH [SeqRBMlowT_1620],Chip Fluorescence (max),[1],3.347
same,Chip Fluorescence (mean),[2],0.3099
QGLYENVLGMEAFSVS [SeqRBM_7629],Chip Fluorescence (max),[3],0.8552
same,Chip Fluorescence (mean),[4],0.1691
QAVMCTAMSWCDCGQR [SeqRBM_6860],Chip Fluorescence (max),[5],1.273
same,Chip Fluorescence (mean),[6],0.6916
STSSLPTFSFSSPLST [SeqRBMlowT_892],Chip Fluorescence (max),[7],1.3512
same,Chip Fluorescence (mean),[8],-0.8669
STSGTFPQTESSHKKQ [SeqRBMlowT_5831],Chip Fluorescence (max),[7],1.58
same,Chip Fluorescence (mean),[8],0.09302
GHSHNPSITITFAEAE [SeqRBM_9189],Chip Fluorescence (max),[9],4.764
same,Chip Fluorescence (mean),[10],1.127
GLLNVYKKTRITYDNL [Seqrandom_1974],Chip Fluorescence (max),[3],0.9025
same,Chip Fluorescence (mean),[4],-0.2688
AQMAPPAINIDFAPTN [SeqRBMlowT_7215],Chip Fluorescence (max),[3],0.4327
same,Chip Fluorescence (mean),[4],-0.8945
TFWTNPQFRLKLIDPD [SeqRBMlowT_9197],Chip Fluorescence (max),[7],1.422
same,Chip Fluorescence (mean),[8],-0.7542
HVSSSPDIVITPTQHR [SeqRBMlowT_1399],Chip Fluorescence (max),[11],0.3374
same,Chip Fluorescence (mean),[12],-0.4706
WAGCDTWVFSIWRWIA [Seqrandom_10000],Chip Fluorescence (max),[9],3.486
same,Chip Fluorescence (mean),[10],0.3128
TFWSNPQFKIKLEDPD [SeqRBMlowT_7428],Chip Fluorescence (max),[7],1.373
same,Chip Fluorescence (mean),[8],0.3282
SSLECPHVQVTVSGQR [SeqRBM_6881],Chip Fluorescence (max),[7],1.51
same,Chip Fluorescence (mean),[8],0.9297
RAYINPHMFFKFDGHK [SeqRBM_1639],Chip Fluorescence (max),[3],0.9031
same,Chip Fluorescence (mean),[4],0.1441
TFWSNPQFKITLDEPD [SeqRBMlowT_5518],Chip Fluorescence (max),[7],1.348
same,Chip Fluorescence (mean),[8],-0.7061
ASEANPEITITPAELP [SeqRBMlowT_410],Chip Fluorescence (max),[5],1.116
same,Chip Fluorescence (mean),[6],-0.403
KAYINPSMVFIEGGRR [SeqRBM_7863],Chip Fluorescence (max),[1],2.964
same,Chip Fluorescence (mean),[2],0.9132
EPEMSPSIFILKAHTT [SeqRBM_1051],Chip Fluorescence (max),[11],-0.7132
same,Chip Fluorescence (mean),[12],-1.058
ATDTTPSVVVHVCESD [SeqRCN1_Macaca_mulatta],Chip Fluorescence (max),[5],1.045
same,Chip Fluorescence (mean),[6],0.2093
TFWTNPQFRITLEEED [SeqRBMlowT_658],Chip Fluorescence (max),[9],4.839
same,Chip Fluorescence (mean),[10],1.41
TFWTNPQYRLKLEEVD [SeqRBMlowT_1143],Chip Fluorescence (max),[5],1.092
same,Chip Fluorescence (mean),[6],0.4965
TFWTNPQYRITLEEED [SeqRBMlowT_1109],Chip Fluorescence (max),[1],3.384
same,Chip Fluorescence (mean),[2],0.265
QAIYQDILGIGAFSGS [SeqRBM_285],Chip Fluorescence (max),[5],1.266
same,Chip Fluorescence (mean),[6],-0.8575
TDHMNPQITISSKEND [SeqRBM_3457],Chip Fluorescence (max),[5],1.164
same,Chip Fluorescence (mean),[6],0.5231
